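Following 48 hours of exposure in 96-well plates, responses at five concentrations were used to interpolate endpoints linearly. GI50 is the concentration that inhibits growth by half. The concentration for full growth arrest is given as TGI.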

What all share (assay): growth of human tumour cells (NCI), 48 h
The test system of experiment [1] is OVCAR-4 ovarian.
The subject of experiment [2] is OVCAR-8 ovarian.
In experiment [3] the test system is SK-MEL-2 melanoma.
The subject of experiment [4] is SN12C renal.
In experiment [5] the test system is U251 CNS.
For experiment [6], the system named is UACC-257 melanoma.
For experiment [7], the system named is UO-31 renal.
For experiment [8], the system named is HS 578T breast.
In experiment [9] the test system is PC-3 prostate.
The subject of experiment [10] is BT-549 breast.

With `N#C/C(=C1\OC(=N)C(c2ccccc2)C1=O)c1ccccc1` (stereo not given), the TGI is above 100 µM in [1]; above 89.2 µM in experiment [2]; above 100 µM in [3]; above 81.6 µM in experiment [4]; above 100 µM in experiment [5]; 59.3 µM in experiment [6]. In experiment [7], this molecule displayed a TGI of 42.8 µM.

Take `O=C(Nc1cc(Cl)cc(Cl)c1)c1cccc(NC2=C(Cl)C(=O)N(Cc3ccccc3)C2=O)c1`: the GI50 in experiment [8] was 32.7 µM; in experiment [1], 81.3 µM; in experiment [2] it was 41.7 µM; in [9], 19.6 µM; in experiment [3], 65.2 µM; in experiment [4] it was 40 µM. Also, the GI50 is 15.6 µM in experiment [5] and 16.9 µM in [7]. Further, the TGI in experiment [8], in experiment [1], in experiment [2], in [9], in experiment [3] and in experiment [4] was above 100 µM throughout. Besides, the TGI in experiment [5] and in experiment [7] was above 100 µM each time.

As to `Cc1ccc(/C=C/C(=O)c2sc(-n3nc(-c4ccccc4)cc3-c3ccccc3)nc2C)cc1`, the TGI in experiment [2], in experiment [3], in experiment [4], in experiment [5], in [6] and in experiment [7] was above 100 µM throughout.

Consider `Nc1nc2c(-c3ccc([N+](=O)[O-])cc3)nnn2c2ccccc12`, for which the TGI in experiment [1] was above 100 µM; in experiment [2], above 100 µM; in experiment [3] it was above 100 µM; in experiment [4], above 100 µM; in [5] it was 66.4 µM; in experiment [7], above 100 µM.

As to `COc1ccc(/C=C/C(=O)c2c(-c3ccccc3)nn(C)c(=O)c2N2CCOCC2)cc1`, the TGI in experiment [2], in [4], in experiment [5] and in [7] was above 100 µM in each case.

As to `COc1ccc(-c2cn(-c3ccc(OC)c(OC)c3)c(=O)[nH]2)cc1`, the GI50 in experiment [8] is above 100 µM; in experiment [1], 75.7 µM; in [9], above 100 µM; in experiment [3], above 100 µM; in [4], above 100 µM; in [5], above 100 µM. Besides, in [7], the GI50 was above 100 µM. The TGI in experiment [8], in experiment [1], in experiment [9], in experiment [3], in experiment [4] and in [5] was above 100 µM each time. For the same molecule, the TGI in experiment [7] is above 100 µM.

Regarding `C/C=C/C(=O)[O-].C/C=C/C(=O)[O-].N.N.N.N.[Co+3].[O-][Cl+3]([O-])([O-])[O-]`, the GI50 in experiment [1], in experiment [2], in experiment [3], in [4], in experiment [5] and in experiment [6] was above 100 µM in each case. Besides, the GI50 in [7] was above 100 µM. For the same molecule, the TGI in experiment [1], in experiment [2], in experiment [3], in experiment [4], in experiment [5] and in [6] was above 100 µM in each case. The molecule further displayed a TGI in experiment [7] above 100 µM.

With `NS(=O)(=O)c1ccc(NC(=O)C2C(=O)C(=O)N(c3ccc(S(N)(=O)=O)cc3)C2=O)cc1` (stereo not given), the TGI in [1], in experiment [2], in experiment [3], in experiment [4], in experiment [5] and in experiment [6] was above 100 µM each time. In [7], this molecule registered a TGI above 100 µM.

`COc1cc2c3c(n(CCCNCCCNCCN)c(=O)c2cc1OC)-c1cc2c(cc1C3=O)OCO2`: the GI50 in [8] was 48.7 µM; in [1], 18.6 µM; in [2], 35.4 µM; in [3], above 100 µM; in experiment [4], 19.8 µM; in [5], 18 µM. Besides, the GI50 in experiment [6] and in experiment [7] was above 100 µM in each case. Also, the TGI was above 100 µM in experiment [8]; 55.6 µM in [1]; above 100 µM in [2]; above 100 µM in [3]; 64.3 µM in [4]; 44.2 µM in experiment [5]. Also, the TGI in experiment [6] and in experiment [7] was above 100 µM in each case.

For the molecule `CC1(C)c2ccccc2N2O[C@@H]3C(=O)N(c4ccccc4)C(=O)[C@@H]3C21c1ccccc1` (stereo not given in full), the TGI in experiment [2], in experiment [3], in experiment [4], in experiment [6] and in experiment [7] was above 100 µM throughout.

As for `CCCCNC(=S)OCCC(C)CCCC(C)C` (stereo not given), the TGI in experiment [1], in [2], in experiment [3], in [4], in experiment [5] and in experiment [6] was above 100 µM each time. The TGI in experiment [7] is above 100 µM.

With `NCCCNc1nc2ccccc2c2c(=O)c3cccc(Cl)c3sc12`, the GI50 in experiment [10] was 1.45 µM; in [9], 1.52 µM; in experiment [3] it was 1.88 µM; in experiment [4] it was 1.52 µM; in experiment [7], 1.03 µM. Moreover, the TGI in experiment [10] was determined as 2.81 µM; in experiment [9] it was 2.95 µM; in [3] it was 3.81 µM; in [4], 3.05 µM; in experiment [7], 2.24 µM.

Regarding `O=C(CCC(=O)Nc1cccc(C(F)(F)F)c1)CC(=O)c1ccc2ccccc2c1`, the TGI in experiment [1], in experiment [2], in experiment [3], in experiment [4], in experiment [5] and in experiment [6] was above 100 µM throughout. Also, in experiment [7], the TGI is above 100 µM.

Consider `CC1C=CC(C(N)C(=O)O)O1` (stereo not given), for which the TGI in experiment [1], in experiment [2], in [3], in [4], in experiment [5] and in experiment [7] was above 100 µM throughout.
